This is an account of results in ChEMBL document CHEMBL2034968, “Discovery of novel urea-based hepatitis C protease inhibitors with high potency against protease-inhibitor-resistant mutants” (J Med Chem, 2012).

In test [1] the test system is Hepatitis C virus. Put plainly: Antiviral activity against Hepatitis C virus subtype 1b harboring protease A156V mutant by transient replicon assay. It is filed as functional, organism-based, Hepacivirus hominis. The note with it: genotype 1b.
Test [2] deals with Hepatitis C virus. Put plainly: Antiviral activity against Hepatitis C virus subtype 1b harboring protease A156S mutant by transient replicon assay. Type of test: functional, organism-based, Hepacivirus hominis. To be noted: genotype 1b.
The subject of test [3] is Hepatitis C virus. Put plainly: Antiviral activity against Hepatitis C virus subtype 1b harboring protease D168A mutant by transient replicon assay. Type of test: functional, organism-based, Hepacivirus hominis. The note with it: genotype 1b. (In general: Replicon systems follow genome replication, usually without infectious particles.)
In test [4] the test system is Hepatitis C virus. Put plainly: Antiviral activity against Hepatitis C virus subtype 1b harboring protease D168V mutant by transient replicon assay. Type of test: functional, organism-based, Hepacivirus hominis. The note with it: genotype 1b.
For test [5], the system named is Hepatitis C virus. Put plainly: Antiviral activity against Hepatitis C virus subtype 1b by stable replicon assay. To be noted: genotype 1b. Type of test: functional, organism-based, Hepacivirus hominis.
The subject of test [6] is Hepatitis C virus. Put plainly: Antiviral activity against Hepatitis C virus subtype 1b harboring protease R155K mutant by transient replicon assay. Type of test: functional, organism-based, Hepacivirus hominis. The note with it: genotype 1b.
The subject of test [7] is Hepatitis C virus. Put plainly: Antiviral activity against Hepatitis C virus subtype 1a by stable replicon assay. It is filed as functional, organism-based, Hepacivirus hominis.
Test [8] has as its system Hepatitis C virus. Nature of the test: Antiviral activity against Hepatitis C virus subtype 1b harboring protease A156T mutant by transient replicon assay. It is filed as functional, organism-based, Hepacivirus hominis. The note with it: genotype 1b.
Test [9] concerns Hepatitis C virus. Put plainly: Antiviral activity against wild type Hepatitis C virus subtype 1b by transient replicon assay. Type of test: functional, organism-based, Hepacivirus hominis. The note with it: genotype 1b.
The nature of test [10]: Inhibition of HCV 1a protease 1a domain. On the set-up: species or system Hepacivirus hominis.

Each structure is given as a SMILES string.

For orientation: EC50 means the concentration needed to bring the measured effect to its halfway point. A high value points to lower potency in that assay. A word on the IC50: it is the concentration that inhibits the measured activity by half. Read a low IC50 as higher potency. As to `COc1ccc2c(O[C@@H]3C[C@H]4C(=O)N[C@]5(C(=O)NS(=O)(=O)C6CC6)C[C@H]5/C=C\CCCCC[C@H](NC(=O)NCc5ccc6c(c5)B(O)OC6)C(=O)N4C3)cc(-c3nc(C(C)C)cs3)nc2c1C`, the EC50 was determined as 9 nM in the test with Hepatitis C virus [1]; 0.2 nM in the test on Hepatitis C virus [2]; 249 nM in the test with Hepatitis C virus [3]; 144 nM in the test with Hepatitis C virus [4]; 0.8 nM with Hepatitis C virus [5]; 49 nM in the test with Hepatitis C virus [6]. The EC50 turned out to be 3.4 nM in the test on Hepatitis C virus [7], 7 nM in the test with Hepatitis C virus [8] and 0.9 nM in the test with Hepatitis C virus [9]. The compound also gave an IC50 in test [10] of 2 nM.
`CC(C)(C)NC(=O)N[C@H](C(=O)N1C[C@H]2[C@@H]([C@H]1C(=O)NC(CC1CCC1)C(=O)C(N)=O)C2(C)C)C(C)(C)C` (some centres undefined) [BOCEPREVIR]: the EC50 in the test with Hepatitis C virus [4] turned out to be 40 nM; in the test with Hepatitis C virus [6], 700 nM; in the test with Hepatitis C virus [8], 12000 nM; in the test with Hepatitis C virus [9], 400 nM.
`COc1ccc2c(O[C@@H]3C[C@H]4C(=O)N[C@]5(C(=O)NS(=O)(=O)C6CC6)C[C@H]5/C=C\CCCCC[C@H](NC(=O)N5CCC(c6ccccc6)CC5)C(=O)N4C3)cc(-c3nc(C(C)C)cs3)nc2c1C`: the 50% effective concentration (EC50) with Hepatitis C virus [1] turned out to be 30 nM; in the test on Hepatitis C virus [3] it was 182 nM; in the test on Hepatitis C virus [4], 386 nM; with Hepatitis C virus [5] it was 0.9 nM; with Hepatitis C virus [6], 69 nM; with Hepatitis C virus [7], 1.6 nM. The 50% effective concentration (EC50) in the test with Hepatitis C virus [8] was determined as 5 nM; in the test on Hepatitis C virus [9], 0.2 nM. This compound yielded a half-inhibitory concentration (IC50) in test [10] of 7 nM.
Regarding `COc1ccc2c(O[C@@H]3C[C@H]4C(=O)N[C@]5(C(=O)NS(=O)(=O)C6CC6)C[C@H]5/C=C\CCCCC[C@H](NC(=O)N5CC6CCCC6C5)C(=O)N4C3)cc(-c3nc(C(C)C)cs3)nc2c1C` (some centres undefined), the EC50 was 15 nM in the test with Hepatitis C virus [1]; 0.1 nM in the test with Hepatitis C virus [2]; 23 nM in the test on Hepatitis C virus [3]; 83 nM in the test on Hepatitis C virus [4]; 0.3 nM in the test with Hepatitis C virus [5]; 11 nM in the test on Hepatitis C virus [6]. The values for the EC50 with Hepatitis C virus [7], with Hepatitis C virus [8] and in the test with Hepatitis C virus [9] were 0.3 nM, 1 nM and 0.01 nM, respectively. Besides, in test [10], the concentration for half-maximal inhibition (IC50) was found to be 5 nM.
On to `COc1ccc2c(O[C@@H]3C[C@H]4C(=O)N[C@]5(C(=O)NS(=O)(=O)C6CC6)C[C@H]5/C=C\CCCCC[C@H](NC(=O)N5CCC(CO)CC5)C(=O)N4C3)cc(-c3nc(C(C)C)cs3)nc2c1C`, for which the EC50 in the test with Hepatitis C virus [1] turned out to be 9 nM; in the test with Hepatitis C virus [3], 47 nM; in the test with Hepatitis C virus [4], 141 nM; in the test on Hepatitis C virus [5] it was 0.3 nM; in the test on Hepatitis C virus [6], 14 nM; in the test on Hepatitis C virus [7], 0.7 nM. Besides, the EC50 was 2 nM with Hepatitis C virus [8] and 0.1 nM in the test with Hepatitis C virus [9]. In addition, half-maximal inhibition in test [10] (IC50) required 1 nM.
For `COc1ccc2c(O[C@@H]3C[C@H]4C(=O)N[C@]5(C(=O)NS(=O)(=O)C6CC6)C[C@H]5/C=C\CCCCC[C@H](NC(=O)N(C)C)C(=O)N4C3)cc(-c3nc(C(C)C)cs3)nc2c1C`, the EC50 was 5 nM in the test with Hepatitis C virus [1]; 36 nM in the test with Hepatitis C virus [3]; 57 nM in the test on Hepatitis C virus [4]; 0.1 nM with Hepatitis C virus [5]; 10 nM in the test with Hepatitis C virus [6]; 0.3 nM with Hepatitis C virus [7]. The 50% effective concentration (EC50) is 1 nM in the test on Hepatitis C virus [8] and 0.04 nM in the test on Hepatitis C virus [9]. In [10], this compound displayed an IC50 of 2 nM.
Turning to `COc1ccc2c(O[C@@H]3C[C@H]4C(=O)N[C@]5(C(=O)NS(=O)(=O)C6CC6)C[C@H]5/C=C\CCCCC[C@H](NC(=O)N5CCC(N6CCCC6)CC5)C(=O)N4C3)cc(-c3nc(C(C)C)cs3)nc2c1C`, the EC50 is 98 nM with Hepatitis C virus [1]; 1.9 nM with Hepatitis C virus [2]; 1620 nM with Hepatitis C virus [3]; 0.5 nM with Hepatitis C virus [5]; 102 nM with Hepatitis C virus [6]; 0.6 nM in the test with Hepatitis C virus [7]. Further, the EC50 worked out at 12 nM in the test with Hepatitis C virus [8] and 0.5 nM in the test on Hepatitis C virus [9]. This compound showed an IC50 in test [10] of 2 nM.
`COc1ccc2c(O[C@@H]3C[C@H]4C(=O)N[C@]5(C(=O)NS(=O)(=O)C6CC6)C[C@H]5/C=C\CCCCC[C@H](NC(=O)N5CCC(O)CC5)C(=O)N4C3)cc(-c3nc(C(C)C)cs3)nc2c1C`: the EC50 in the test with Hepatitis C virus [1] came out at 9 nM; in the test on Hepatitis C virus [3], 42 nM; with Hepatitis C virus [4], 154 nM; in the test with Hepatitis C virus [5], 0.3 nM; in the test with Hepatitis C virus [6], 7 nM; in the test on Hepatitis C virus [7], 0.6 nM. The 50% effective concentration (EC50) with Hepatitis C virus [8] amounted to 2 nM; in the test on Hepatitis C virus [9] it was 0.1 nM. In test [10], this compound returned an IC50 of 2 nM.
For the compound `COc1ccc2c(O[C@@H]3C[C@H]4C(=O)N[C@]5(C(=O)NS(=O)(=O)C6CC6)C[C@H]5/C=C\CCCCC[C@H](NC(N)=O)C(=O)N4C3)cc(-c3nc(C(C)C)cs3)nc2c1C`, the concentration for a half-maximal effect (EC50) stood at 16 nM in the test on Hepatitis C virus [1]; 873 nM with Hepatitis C virus [3]; 2260 nM in the test on Hepatitis C virus [4]; 0.5 nM with Hepatitis C virus [5]; 66 nM in the test on Hepatitis C virus [6]; 1.8 nM in the test with Hepatitis C virus [7]. Besides, the EC50 in the test on Hepatitis C virus [8] turned out to be 6 nM; in the test with Hepatitis C virus [9], 0.4 nM. Further, it took 2 nM to reach half-maximal inhibition in test [10] (IC50).
In the case of `COc1ccc2c(O[C@@H]3C[C@H]4C(=O)N[C@]5(C(=O)NS(=O)(=O)C6CC6)C[C@H]5/C=C\CCCCC[C@H](NC(=O)N5CCC(C)(C)C5)C(=O)N4C3)cc(-c3nc(C(C)C)cs3)nc2c1C`, the concentration giving a half-maximal response (EC50) turned out to be 11 nM with Hepatitis C virus [1]; 28 nM in the test with Hepatitis C virus [3]; 138 nM in the test with Hepatitis C virus [4]; 0.5 nM with Hepatitis C virus [5]; 17 nM in the test on Hepatitis C virus [6]; 0.6 nM in the test with Hepatitis C virus [7]. Besides, the results for the 50% effective concentration (EC50) in the test on Hepatitis C virus [8] and with Hepatitis C virus [9] were 2 nM and 0.1 nM, respectively. For the same compound, in test [10], the half-maximal inhibitory concentration (IC50) was found to be 2 nM.
In turn, `CC[C@@H]1C[C@]1(NC(=O)[C@@H]1C[C@@H]2CN1C(=O)[C@H](C(C)(C)C)NC(=O)OCC(C)(C)CCCCc1cccc3c1CN(C3)C(=O)O2)C(=O)NS(=O)(=O)C1CC1` [VANIPREVIR] came in with an EC50 with Hepatitis C virus [9] of 1.6 nM.
For `COc1ccc2c(O[C@@H]3C[C@H]4C(=O)N[C@]5(C(=O)NS(=O)(=O)C6CC6)C[C@H]5/C=C\CCCCC[C@H](NC(=O)N5CCC(CC(N)=O)CC5)C(=O)N4C3)cc(-c3nc(C(C)C)cs3)nc2c1C`, the EC50 in the test on Hepatitis C virus [1] worked out at 10 nM; with Hepatitis C virus [2], 0.1 nM; with Hepatitis C virus [3], 431 nM; in the test with Hepatitis C virus [5] it was 1.5 nM; in the test with Hepatitis C virus [6] it was 65 nM; in the test with Hepatitis C virus [7], 5.6 nM. In addition, the results for the EC50 in the test on Hepatitis C virus [8] and with Hepatitis C virus [9] were 3 nM and 0.2 nM, respectively. Further, half-maximal inhibition in test [10] (IC50) required 2 nM.
`COc1ccc2c(O[C@@H]3C[C@H]4C(=O)N[C@]5(C(=O)NS(=O)(=O)C6CC6)C[C@H]5/C=C\CCCCC[C@H](NC(=O)NCc5ccc(CO)c(O)c5)C(=O)N4C3)cc(-c3nc(C(C)C)cs3)nc2c1C`: the EC50 in the test on Hepatitis C virus [5] turned out to be 1.1 nM; in the test with Hepatitis C virus [7] it was 15.5 nM. In test [10], this compound registered an IC50 of 0.5 nM.
Regarding `COc1ccc2c(O[C@@H]3C[C@H]4C(=O)N[C@]5(C(=O)NS(=O)(=O)C6CC6)C[C@H]5/C=C\CCCCC[C@H](NC(=O)N5CCN(C6CCCC6)CC5)C(=O)N4C3)cc(-c3nc(C(C)C)cs3)nc2c1C`, the EC50 amounted to 32 nM with Hepatitis C virus [1]; 169 nM in the test on Hepatitis C virus [3]; 477 nM in the test with Hepatitis C virus [4]; 0.3 nM with Hepatitis C virus [5]; 60 nM in the test on Hepatitis C virus [6]; 0.5 nM in the test with Hepatitis C virus [7]. For the same compound, the EC50 with Hepatitis C virus [8] was 5 nM; in the test on Hepatitis C virus [9], 0.1 nM. For the same compound, in test [10], the 50% inhibitory concentration (IC50) came to 2 nM.
